Data as given in US6737383B1, “Herbicidal oxadiazolidines” (priority 1999, dated 2004).

Assays:
bedstraw = assay: Test B pre/postemergence bedstraw; format: in vivo, Galium aparine
Summary of the method: (§1)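 Test chemicals in a non-phytotoxic solvent mixture with surfactant were sprayed preemergence onto planted seeds and postemergence onto plants 2 to 18 cm tall (1- to 4-leaf stage). After twelve to sixteen days in a greenhouse, injury was visually rated against untreated controls from 0 (no effect) to 10 (complete control).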

blackgrass = assay: Test B pre/postemergence blackgrass; format: in vivo, Alopecurus myosuroides
Summary of the method: as §1

surinam grass = assay: Test B pre/postemergence surinam grass; format: in vivo, Brachiaria decumbens
Summary of the method: as §1

cocklebur = assay: Test B pre/postemergence cocklebur; format: in vivo, Xanthium strumarium
Summary of the method: as §1

corn = assay: Test B pre/postemergence corn; format: in vivo, Zea mays
Summary of the method: as §1

crabgrass = assay: Test B pre/postemergence crabgrass; format: in vivo, Digitaria sanguinalis
Summary of the method: as §1

giant foxtail = assay: Test B pre/postemergence giant foxtail; format: in vivo, Setaria faberii
Summary of the method: as §1

morningglory = assay: Test B pre/postemergence morningglory; format: in vivo, Ipomoea hederacea
Summary of the method: as §1

pigweed = assay: Test B pre/postemergence pigweed; format: in vivo, Amaranthus retroflexus
Summary of the method: as §1

rape = assay: Test B pre/postemergence rape; format: in vivo, Brassica napus
Summary of the method: as §1

soybean = assay: Test B pre/postemergence soybean; format: in vivo, Glycine max
Summary of the method: as §1

sugar beet = assay: Test B pre/postemergence sugar beet; format: in vivo, Beta vulgaris
Summary of the method: as §1

velvetleaf = assay: Test B pre/postemergence velvetleaf; format: in vivo, Abutilon theophrasti
Summary of the method: as §1

wheat = assay: Test B pre/postemergence wheat; format: in vivo, Triticum aestivum
Summary of the method: as §1

wild oat = assay: Test B pre/postemergence wild oat; format: in vivo, Avena fatua
Summary of the method: as §1

purple nutsedge = assay: Test B pre/postemergence purple nutsedge; format: in vivo, Cyperus rotundus
Summary of the method: as §1

[1] = Postemergence, Rate 62 g/ha, scale 0 to 10, 0 is no effect, 10 is complete control
[2] = Postemergence, Rate 125 g/ha, scale of 0 to 10 where 0 is no effect and 10 is complete control
[3] = Preemergence, Rate 125 g/ha, scale of 0 to 10 where 0 is no effect and 10 is complete control
[4] = Preemergence, Rate 250 g/ha, scale 0 (no effect) to 10 (complete control)
[5] = Rate 250 g/ha, Postemergence, scale 0 to 10, 0 is no effect, 10 is complete control
[6] = Rate 500 g/ha, Postemergence, scale 0 to 10, 0 is no effect, 10 is complete control
[7] = Rate 500 g/ha, Preemergence, scale 0 to 10 (0 no effect, 10 complete control)
[8] = Rate 62 g/ha, Preemergence, scale 0 to 10

## CC(C)N(C(=O)n1oc(=O)n(C[C@H](C)Cl)c1=O)c1ccc(Cl)cc1 [Compound 748]
bedstraw; [1]
  Plant response rating, Bedstraw: 5
bedstraw; [2]
  Bedstraw plant response rating: 6
bedstraw; [3]
  Plant response rating, Bedstraw: 0
bedstraw; [4]
  Bedstraw plant response rating: 0
bedstraw; [5]
  Bedstraw plant response rating: 9
bedstraw; [6]
  Bedstraw plant response rating: 9
bedstraw; [7]
  Bedstraw plant response rating: 0
blackgrass; [1]
  Plant response rating, Blackgrass: 5
blackgrass; [2]
  Blackgrass plant response rating: 6
blackgrass; [3]
  Plant response rating, Blackgrass: 3
blackgrass; [8]
  Blackgrass plant response rating: 0
blackgrass; [5]
  Blackgrass plant response rating: 7
blackgrass; [6]
  Blackgrass plant response rating: 8
blackgrass; [7]
  Blackgrass plant response rating: 9
Surinam grass; [1]
  Plant response rating, B. signalgrass: 2
Surinam grass; [2]
  B. signalgrass plant response rating: 2
Surinam grass; Preemergence, Rate 62 g/ha, scale of 0 to 10 where 0 is no effect and 10 is complete control
  B. signalgrass plant response rating: 0
Surinam grass; [3]
  Plant response rating, B. signalgrass: 3
Surinam grass; [4]
  B. signalgrass plant response rating: 3
Surinam grass; [5]
  B. signalgrass plant response rating: 4
Surinam grass; [6]
  B. signalgrass plant response rating: 7
Surinam grass; [7]
  B. signalgrass plant response rating: 10
cocklebur; [1]
  Plant response rating, Cocklebur: 0
cocklebur; [2]
  Cocklebur plant response rating: 0
cocklebur; [3]
  Plant response rating, Cocklebur: 0
cocklebur; [4]
  Cocklebur plant response rating: 0
cocklebur; [8]
  Cocklebur plant response rating: 0
cocklebur; [5]
  Cocklebur plant response rating: 0
cocklebur; [7]
  Cocklebur plant response rating: 0
corn; [1]
  Plant response rating, Corn: 0
corn; [2]
  Corn plant response rating: 0
corn; [3]
  Plant response rating, Corn: 0
corn; [4]
  Corn plant response rating: 0
corn; [8]
  Corn plant response rating: 0
corn; [5]
  Corn plant response rating: 0
corn; [6]
  Corn plant response rating: 0
corn; [7]
  Corn plant response rating: 4
crabgrass; [1]
  Plant response rating, Crabgrass: 2
crabgrass; [2]
  Crabgrass plant response rating: 3
crabgrass; [3]
  Plant response rating, Crabgrass: 10
crabgrass; [4]
  Crabgrass plant response rating: 10
crabgrass; [8]
  Crabgrass plant response rating: 9
crabgrass; [5]
  Crabgrass plant response rating: 8
crabgrass; [6]
  Crabgrass plant response rating: 9
crabgrass; [7]
  Crabgrass plant response rating: 10
Giant foxtail; [1]
  Plant response rating, Giant foxtail: 2
Giant foxtail; [2]
  Giant foxtail plant response rating: 6
Giant foxtail; [3]
  Plant response rating, Giant foxtail: 10
Giant foxtail; [4]
  Giant foxtail plant response rating: 10
Giant foxtail; [8]
  Giant foxtail plant response rating: 9
Giant foxtail; [5]
  Giant foxtail plant response rating: 8
Giant foxtail; [6]
  Giant foxtail plant response rating: 9
Giant foxtail; [7]
  Giant foxtail plant response rating: 10
morningglory; [1]
  Plant response rating, Morningglory: 0
morningglory; [2]
  Morningglory plant response rating: 6
morningglory; [3]
  Plant response rating, Morningglory: 0
morningglory; [4]
  Morningglory plant response rating: 0
morningglory; [8]
  Morningglory plant response rating: 0
morningglory; [5]
  Morningglory plant response rating: 6
morningglory; [6]
  Morningglory plant response rating: 7
morningglory; [7]
  Morningglory plant response rating: 0
pigweed; [1]
  Plant response rating, Redroot pigweed: 2
pigweed; [2]
  Redroot pigweed plant response rating: 4
pigweed; [3]
  Plant response rating, Redroot pigweed: 10
pigweed; [4]
  Redroot pigweed plant response rating: 10
pigweed; [8]
  Redroot pigweed plant response rating: 4
pigweed; [5]
  Redroot pigweed plant response rating: 6
pigweed; [6]
  Redroot pigweed plant response rating: 8
pigweed; [7]
  Redroot pigweed plant response rating: 10
rape; [1]
  Plant response rating, Rape: 0
rape; [2]
  Rape plant response rating: 3
rape; [3]
  Plant response rating, Rape: 0
rape; [4]
  Rape plant response rating: 0
rape; [8]
  Rape plant response rating: 0
rape; [5]
  Rape plant response rating: 6
rape; [6]
  Rape plant response rating: 7
rape; [7]
  Rape plant response rating: 7
soybean; [1]
  Plant response rating, Soybean: 3
soybean; [2]
  Soybean plant response rating: 3
soybean; [3]
  Plant response rating, Soybean: 0
soybean; [4]
  Soybean plant response rating: 0
soybean; [8]
  Soybean plant response rating: 0
soybean; [5]
  Soybean plant response rating: 4
soybean; [6]
  Soybean plant response rating: 5
soybean; [7]
  Soybean plant response rating: 0
Sugar beet; [1]
  Plant response rating, Sugarbeets: 0
Sugar beet; [2]
  Sugarbeets plant response rating: 2
Sugar beet; [3]
  Plant response rating, Sugarbeets: 0
Sugar beet; [4]
  Sugarbeets plant response rating: 2
Sugar beet; [8]
  Sugarbeets plant response rating: 0
Sugar beet; [5]
  Sugarbeets plant response rating: 6
Sugar beet; [6]
  Sugarbeets plant response rating: 7
Sugar beet; [7]
  Sugarbeets plant response rating: 7
velvetleaf; [1]
  Plant response rating, Velvetleaf: 0
velvetleaf; [2]
  Velvetleaf plant response rating: 0
velvetleaf; [3]
  Plant response rating, Velvetleaf: 0
velvetleaf; [4]
  Velvetleaf plant response rating: 0
velvetleaf; [8]
  Velvetleaf plant response rating: 0
velvetleaf; [5]
  Velvetleaf plant response rating: 0
velvetleaf; [6]
  Velvetleaf plant response rating: 4
velvetleaf; [7]
  Velvetleaf plant response rating: 0
wheat; [1]
  Plant response rating, Wheat: 0
wheat; [2]
  Wheat plant response rating: 0
wheat; [3]
  Plant response rating, Wheat: 0
wheat; [4]
  Wheat plant response rating: 0
wheat; [8]
  Wheat plant response rating: 0
wheat; [5]
  Wheat plant response rating: 0
wheat; [7]
  Wheat plant response rating: 5
Wild oat; [1]
  Plant response rating, Wild oats: 0
Wild oat; [2]
  Wild oats plant response rating: 0
Wild oat; [3]
  Plant response rating, Wild oats: 2
Wild oat; [4]
  Wild oats plant response rating: 2
Wild oat; [8]
  Wild oats plant response rating: 0
Wild oat; [5]
  Wild oats plant response rating: 0
Wild oat; [6]
  Wild oats plant response rating: 0
Wild oat; [7]
  Wild oats plant response rating: 8
Purple nutsedge; [1]
  Plant response rating, Nutsedge: 0
Purple nutsedge; [2]
  Nutsedge plant response rating: 0
Purple nutsedge; [3]
  Plant response rating, Nutsedge: 0
Purple nutsedge; [4]
  Nutsedge plant response rating: 0
Purple nutsedge; [8]
  Nutsedge plant response rating: 0
Purple nutsedge; [5]
  Nutsedge plant response rating: 0
Purple nutsedge; [6]
  Nutsedge plant response rating: 0
Purple nutsedge; [7]
  Nutsedge plant response rating: 2
